We go through eleven compounds from paper PMC4145318, “Marinopyrrole Derivatives with Sulfide Spacers as Selective Disruptors of Mcl-1 Binding to Pro-Apoptotic Protein Bim” (Marine Drugs, 2014).

Data set [1] concerns MDA-MB-468 cells. The data set is described as follows: Apoptosis induction (cleaved caspase 3, Western blotting). The note with it: 40 μM for 16 h.
Experimental: (§2) The cells were then processed for Western blotting exactly as described by us previously [16, 38]. […] We next evaluated the effects of the compounds on programed cell death (apoptosis) by determining their ability to induce cleaved caspase 3 in MDA-MB-468 cells.
(§3) Treatment of the human breast cancer (MDA-MB-468) cells and Western blotting were performed using the methods described by us previously [16, 38].
Data set [2] has as its target T1, Mcl-1/Bim (Homo sapiens, UniProt Q07820). To be noted: ELISA; average ± SEM, n ≥ 3; data previously reported; cited from earlier work. Background: An ELISA detects its analyte on a solid surface through an enzyme-linked reagent.
Data set [3] has as its target T1, Mcl-1/Bim. The data set is described as follows: ELISA, disruption of Mcl-1 binding to Bim. To be noted: for IC50: ELISA; for fold more potent than 1 against Mcl-1/Bim: ELISA IC50 vs. marinopyrrole A (1). On the procedure: (§1) ELISAs were performed using a similar procedure as previously described. Briefly, 40 nM of biotinylated Bim BH3 peptide (Biomatik, Wilmington, DE, USA) in SuperBlock blocking buffer (Thermo Scientific Pierce, Rockford, IL, USA) was incubated in high-binding capacity streptavidin coated plates (Thermo Scientific Pierce, Rockford, IL, USA) for 2 h. Compounds were diluted in 120 µL of PBS containing 10 nM of GST-Mcl-1 or 10 nM GST-Bcl-xL in 1.5-mL tubes for 15 min. Wells were washed with wash buffer (PBS containing 0.05% Tween-20) and then 100 µL of the compound/GST-protein mixture was transferred to the Bim-containing wells. The plates were incubated for 2 h, and then, the wells were washed with wash buffer. HRP-conjugated anti-GST antibody (Bethyl Laboratories, Montgomery, TX, USA) was diluted 1:2000 in SuperBlock, and 100 µL were transferred to each well. The plate was incubated for 1 h, and then, the wells were washed with wash buffer followed by PBS. One hundred microliters of SureBlue TMB Microwell Peroxidase Substrate (VWR International, Radnor, PA, USA) was added to each well, and the plates were developed for 5–10 min. One hundred microliters of 1 N HCl was added to each well to stop the reaction, and the absorbance was read at 450 nm using a µQuant plate reader (Bio-Tek Instruments, Winooski, VT, USA).

Data set [4] concerns the target T2, Bcl-xL/Bim (Homo sapiens, UniProt Q07817). The data set is described as follows: ELISA, disruption of Bcl-xL binding to Bim. To be noted: for IC50: ELISA; for fold more potent than 1 against Bcl-xL/Bim: ELISA IC50 vs. marinopyrrole A (1). On the procedure:
as §1

Data set [5] has as its system Mcl-1 levels in MDA-MB-468 cells. The data set is described as follows: Western blotting of Mcl-1 levels in intact breast cancer cells. The note with it: 40 μM for 16 h. A general note: In western blotting, separated proteins are transferred to a membrane and probed.
Experimental: as §2, §3
Data set [6] has as its target T2, Bcl-xL/Bim. Details: method as in PMID 24608970. To be noted: ELISA; average ± SEM, n ≥ 3; data previously reported; cited from earlier work.
For data set [7] the following is noted: aqueous; stated without method or reference; cited from earlier work.
The test system of data set [8] is MDA-MB-468 cells. The data set is described as follows: MTT assay. The note with it: read-out: estimated IC50, inhibition of MDA-MB-468 cell growth.
Experimental: In addition, the ability of the compounds to inhibit tumor growth of MDA-MB-468 cells was determined by MTT assays. To this end, MDA-MB-468 cells were treated for 48 h with the compounds at 0, 0.5, 5 and 50 μM, and the cells were processed for MTT assays as described by us [39].
MDA-MB-468 cells were treated and processed for MTT, DAPI nuclear staining and phase imaging of cells as described previously by us [39].
Another data set has as its target T3, Mcl-1 (Homo sapiens, UniProt Q07820).
T3 construct: Recombinant His-tagged Mcl-1 (residues 172–327) was purified as previously described; His; made in house
The data set is described as follows: Fluorescence-quenching direct binding assay (intrinsic Trp fluorescence). To be noted: 2.5 μM His-tagged Mcl-1 (residues 172–327), pH 7.6. On the procedure: To confirm direct binding of the compounds to Mcl-1, we have established a fluorescence-quenching assay based on the intrinsic Trp fluorescence of Mcl-1 [37].
Recombinant His-tagged Mcl-1 (residues 172–327) was purified as previously described. Intrinsic Trp fluorescence of Mcl-1 was measured with a TECAN M1000 plate reader at excitation wavelength of 285 nm and emission wavelengths of 310–400 nm. Serial dilutions of compound 9 (starting from 20 μM) in 20 mM K-phosphate pH 7.6, […] was used to assay compound binding using 2.5 μM of Mcl-1. Each condition is run at triplicate and binding constants are calculated by nonlinear regression analysis of dose response curves using Prism software 6.0 (Graphpad, La Jolla, CA, USA). Control experiments included titration of DMSO solvent and fluorescence quenching of denatured Mcl-1 in the presence of compound.

Setting [9] is: average ± SEM, n ≥ 3, 10 nM GST-Mcl-1, 40 nM biotinylated Bim BH3 peptide, read-out: Mcl-1/Bim IC50.
Setting [10] is: average ± SEM, n ≥ 3 (n = 2 where given), 10 nM GST-Bcl-xL, 40 nM biotinylated Bim BH3 peptide, read-out: Bcl-xL/Bim IC50.
Setting [11] is: read-out: IC50 Mcl-1/Bim disruption (abstract).
The mark [12] stands for this setting: read-out: IC50 Bcl-xL/Bim disruption (abstract).

SMILES strings stand for the structures. Read-outs that look alike come from different tables or passages of the source. A value given as a limit tells only on which side of the number the result lay.

T1 sequence (Q07820 whole entry): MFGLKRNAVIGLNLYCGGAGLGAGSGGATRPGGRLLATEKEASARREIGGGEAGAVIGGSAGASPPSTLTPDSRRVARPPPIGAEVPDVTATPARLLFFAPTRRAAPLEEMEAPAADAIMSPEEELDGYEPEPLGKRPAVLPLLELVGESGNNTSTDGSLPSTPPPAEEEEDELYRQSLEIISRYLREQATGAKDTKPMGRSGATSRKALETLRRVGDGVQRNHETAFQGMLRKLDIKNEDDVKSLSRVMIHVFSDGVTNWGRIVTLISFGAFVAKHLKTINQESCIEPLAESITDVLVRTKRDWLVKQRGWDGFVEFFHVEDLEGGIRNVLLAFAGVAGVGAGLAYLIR
T2 sequence (Q07817 whole entry): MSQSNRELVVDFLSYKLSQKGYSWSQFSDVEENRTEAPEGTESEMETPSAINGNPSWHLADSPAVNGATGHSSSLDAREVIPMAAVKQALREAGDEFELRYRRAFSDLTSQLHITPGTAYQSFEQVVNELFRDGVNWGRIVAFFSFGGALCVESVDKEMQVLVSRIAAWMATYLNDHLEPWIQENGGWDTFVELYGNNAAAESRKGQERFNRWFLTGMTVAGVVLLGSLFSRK
T3 sequence (Q07820 172-327): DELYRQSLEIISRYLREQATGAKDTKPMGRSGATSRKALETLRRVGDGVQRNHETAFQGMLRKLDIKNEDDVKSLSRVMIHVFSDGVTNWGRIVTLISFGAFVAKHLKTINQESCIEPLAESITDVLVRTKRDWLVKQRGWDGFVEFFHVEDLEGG

On to `O=C(c1ccccc1O)c1[nH]c(Cl)c(Cl)c1-n1c(C(=O)c2ccccc2O)cc(Cl)c1Cl` [Compound 1, marinopyrrole A, reference compound], for which, in the data set with MDA-MB-468 cells [1], the “induction of apoptosis (cleaved caspase 3)” value (from here on “induction of apoptosis”) is “potently induced apoptosis”. The IC50 at Mcl-1/Bim [2] was 8.9 ± 1 µM; at Mcl-1/Bim [3] (setting [9]), 25.1 ± 4.7 µM; at Bcl-xL/Bim [4] (setting [10]) it was 96.6 µM; at Bcl-xL/Bim [6], 16.4 ± 3.3 µM; in the data set on MDA-MB-468 cells [8] (MTT, 48 h, compounds at 0, 0.5, 5 and 50 μM, estimated) it was 2 µM. Besides, in data set [5], the “decrease in the levels of Mcl-1” value is on record as “significant decrease”. Besides, the solubility result in data set [7] was “poor solubility”.

On to `CCOC(=O)CSc1ccc(C(=O)c2[nH]c(Cl)c(Cl)c2-n2c(C(=O)c3ccc(SCC(=O)OCC)cc3O)cc(Cl)c2Cl)c(O)c1` [Compound 3], for which the “induction of apoptosis” value with MDA-MB-468 cells [1] was “potently induced apoptosis”. In addition, the “fold more potent than 1 against Mcl-1/Bim” value on Mcl-1/Bim [3] is recorded as “five”. The IC50 on Mcl-1/Bim [3] (setting [9]) is 1.8 ± 0.3 µM; on Bcl-xL/Bim [4] (setting [10]), 1.2 ± 0.2 µM; in the data set on MDA-MB-468 cells [8] (Homo sapiens, MDA-MB-468, 48 h), 3 µM. Also, the “decrease in the levels of Mcl-1” value in [5] is given as “highly potent”.

Turning to `O=C(c1ccc(SCc2ccccc2)cc1O)c1[nH]c(Cl)c(Cl)c1-n1c(C(=O)c2ccc(SCc3ccccc3)cc2O)cc(Cl)c1Cl` [Compound 4, (4,4′,5,5′-Tetrachloro-1′H-1,3′-bipyrrole-2,2′-diyl)bis(((2-hydroxy-4-benzylthio)phenyl)methanone)], the “induction of apoptosis” value with MDA-MB-468 cells [1] is “potently induced apoptosis”. Moreover, the “fold more potent than 1 against Mcl-1/Bim” value at Mcl-1/Bim [3] is on record as 12.7 fold. Further, the IC50 at Mcl-1/Bim [3] (setting [9]) was 0.7 ± 0.2 µM; on Mcl-1/Bim [3] (setting [11]) it was 0.6 µM; on Bcl-xL/Bim [4] (setting [10]) it was 0.6 ± 0.2 µM; at Bcl-xL/Bim [4] (setting [12]), 0.7 µM; in the data set on MDA-MB-468 cells [8] (Homo sapiens, MDA-MB-468, 48 h), 28 µM. Moreover, the “fold more potent than 1 against Bcl-xL/Bim” value on Bcl-xL/Bim [4] came to 27.3 fold. For the same compound, the “decrease in the levels of Mcl-1” value in data set [5] is recorded as “highly potent”.

As to `COc1ccc(CSc2ccc(C(=O)c3[nH]c(Cl)c(Cl)c3-n3c(C(=O)c4ccc(SCc5ccc(OC)cc5)cc4O)cc(Cl)c3Cl)c(O)c2)cc1` [Compound 5], in the data set on MDA-MB-468 cells [1], the “induction of apoptosis” value is recorded as “potently induced apoptosis”. Also, the “fold more potent than 1 against Mcl-1/Bim” value at Mcl-1/Bim [3] is reported as 12.7 fold. The IC50 was 0.7 ± 0.1 µM at Mcl-1/Bim [3] (setting [9]); 0.6 µM at Mcl-1/Bim [3] (setting [11]); 0.6 ± 0.1 µM at Bcl-xL/Bim [4] (setting [10]); 0.7 µM on Bcl-xL/Bim [4] (setting [12]); 50 µM with MDA-MB-468 cells [8] (Homo sapiens, MDA-MB-468, 48 h). In addition, the “fold more potent than 1 against Bcl-xL/Bim” value at Bcl-xL/Bim [4] is on record as 27.3 fold. Further, the “decrease in the levels of Mcl-1” value in data set [5] is “highly potent”.

With `CCOC(=O)CS(=O)(=O)c1ccc(C(=O)c2[nH]c(Cl)c(Cl)c2-n2c(C(=O)c3ccc(S(=O)(=O)CC(=O)OCC)cc3O)cc(Cl)c2Cl)c(O)c1` [Compound 6], in the data set with MDA-MB-468 cells [1], the “induction of apoptosis” value is “potently induced apoptosis”. The IC50 at Mcl-1/Bim [3] (setting [9]) was 37.3 ± 3.1 µM; on Bcl-xL/Bim [4] (setting [10]), greater than 100 µM; in the data set with MDA-MB-468 cells [8] (Homo sapiens, MDA-MB-468, 48 h), 50 µM. In [5], the “decrease in the levels of Mcl-1” value is reported as “highly potent”.

For `O=C(c1ccc(S(=O)(=O)Cc2ccccc2)cc1O)c1[nH]c(Cl)c(Cl)c1-n1c(C(=O)c2ccc(S(=O)(=O)Cc3ccccc3)cc2O)cc(Cl)c1Cl` [Compound 7, (4,4′,5,5′-Tetrachloro-1′H-1,3′-bipyrrole-2,2′-diyl)bis(((2-hydroxy-4-benzylsulfonyl)phenyl)methanone)], in the data set with MDA-MB-468 cells [1], the “induction of apoptosis” value is listed as “potently induced apoptosis”. The IC50 at Mcl-1/Bim [3] (setting [9]) was 7.3 ± 1.4 µM; on Bcl-xL/Bim [4] (setting [10]) it was 69.3 ± 15.8 µM; in the data set with MDA-MB-468 cells [8] (Homo sapiens, MDA-MB-468, 48 h) it was 20 µM.

As for `COc1ccc(CS(=O)(=O)c2ccc(C(=O)c3[nH]c(Cl)c(Cl)c3-n3c(C(=O)c4ccc(S(=O)(=O)Cc5ccc(OC)cc5)cc4O)cc(Cl)c3Cl)c(O)c2)cc1` [Compound 8], the “induction of apoptosis” value in the data set on MDA-MB-468 cells [1] was “weak”. The IC50 at Mcl-1/Bim [3] (setting [9]) is 17.4 ± 3.1 µM; at Bcl-xL/Bim [4] (setting [10]) it was greater than 100 µM; in the data set on MDA-MB-468 cells [8] (Homo sapiens, MDA-MB-468, 48 h), 50 µM. The “decrease in the levels of Mcl-1” value in data set [5] was “moderately active”.

By Kd is commonly meant the equilibrium constant for the complex coming apart. A lower Kd goes with a tighter complex. Regarding `O=C(O)CSc1ccc(C(=O)c2[nH]c(Cl)c(Cl)c2-n2c(C(=O)c3ccc(SCC(=O)O)cc3O)cc(Cl)c2Cl)c(O)c1` [Compound 9], the “induction of apoptosis” value in the data set with MDA-MB-468 cells [1] is “weak”. The IC50 at Mcl-1/Bim [3] (setting [9]) is 6.1 ± 1.3 µM; at Bcl-xL/Bim [4] (setting [10]), greater than 100 µM; in the data set with MDA-MB-468 cells [8] (Homo sapiens, MDA-MB-468, 48 h) it was 29 µM. Further, the “selectivity for Mcl-1/Bim over Bcl-xL/Bim” value on Mcl-1/Bim [3] (ratio of ELISA IC50 values) was 16.4 fold. The compound further gave a Kd at Mcl-1 of 2700 nM. The “decrease in the levels of Mcl-1” value in data set [5] was “moderately active”.

As to `O=C(O)CS(=O)(=O)c1ccc(C(=O)c2[nH]c(Cl)c(Cl)c2-n2c(C(=O)c3ccc(S(=O)(=O)CC(=O)O)cc3O)cc(Cl)c2Cl)c(O)c1` [Compound 10], in the data set on MDA-MB-468 cells [1], the “induction of apoptosis” value was “potently induced apoptosis”. In addition, the IC50 was 63 ± 5.4 µM at Mcl-1/Bim [3] (setting [9]); greater than 100 µM on Bcl-xL/Bim [4] (setting [10]); 20 µM with MDA-MB-468 cells [8] (Homo sapiens, MDA-MB-468, 48 h). For the same compound, the “decrease in the levels of Mcl-1” value in data set [5] was “highly potent”.

In the case of `CCOC(=O)c1cc(Cl)c(Cl)n1-c1c(C(=O)c2ccccc2O)[nH]c(Cl)c1Cl` [Compound 11], the “induction of apoptosis” value in the data set on MDA-MB-468 cells [1] is on record as “potently induced apoptosis”. Moreover, the “decrease in the levels of Mcl-1” value in [5] is on record as “highly potent”. The IC50 in the data set with MDA-MB-468 cells [8] (Homo sapiens, MDA-MB-468, 48 h) was 2 µM.

As to `CCOC(=O)c1[nH]c(Cl)c(Cl)c1-n1c(C(=O)c2ccccc2O)cc(Cl)c1Cl` [Compound 12], the “induction of apoptosis” value with MDA-MB-468 cells [1] is on record as “weak”. For the same compound, the IC50 is 11.5 ± 1.9 µM at Mcl-1/Bim [3] (setting [9]); 17.6 ± 4.5 µM at Bcl-xL/Bim [4] (setting [10]); 16 µM with MDA-MB-468 cells [8] (Homo sapiens, MDA-MB-468, 48 h). In addition, the “decrease in the levels of Mcl-1” value in data set [5] is “moderately active”.
